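Compound exposure: 48 hours, 5 concentrations, 96-well plates. Abbreviation: GI50, concentration required for 50% inhibition of growth.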 Active and inactive are the calls of the source. No stated cut-off is given here; in the data, active = GI50 up to about 1.1 µM and inactive = higher.
Experiments:
Test in all cases: inhibition of tumour cell growth, NCI panel, 48 h
[1] = test system: HOP-92
[2] = test system: LOX IMVI
[3] = test system: OVCAR-8
[4] = test system: SK-MEL-28
[5] = test system: OVCAR-5
[6] = test system: BT-549
[7] = test system: COLO 205
[8] = test system: RXF 393
[9] = test system: HCT-116
[10] = test system: SK-MEL-2
[11] = test system: NCI/ADR-RES
[12] = test system: CCRF-CEM
[13] = test system: IGROV-1
[14] = test system: ACHN
[15] = test system: HOP-62
[16] = test system: NCI-H23
[17] = test system: PC-3
[18] = test system: K562
[19] = test system: SNB-75
[20] = test system: SR

| Structure (SMILES) | GI50 [1] | GI50 [2] | GI50 [3] | GI50 [4] | GI50 [5] | GI50 [6] | GI50 [7] | GI50 [8] | GI50 [9] | GI50 [10] | GI50 [11] | GI50 [12] | GI50 [13] | GI50 [14] | GI50 [15] | GI50 [16] | GI50 [17] | GI50 [18] | GI50 [19] | GI50 [20] |
| --- | --- | --- | --- | --- | --- | --- | --- | --- | --- | --- | --- | --- | --- | --- | --- | --- | --- | --- | --- | --- |
| O=C(c1ccc(Cl)cc1)N(C(=S)OCCOc1ccccc1)c1ccccc1 | 3.34 µM (inactive) | 17.4 µM (inactive) | 20.3 µM (inactive) | 15.8 µM (inactive) | 17 µM (inactive) | 20.2 µM (inactive) | 19.9 µM (inactive) | 18.6 µM (inactive) | 16.2 µM (inactive) | 22.1 µM (inactive) | 23.9 µM (inactive) | 13.7 µM (inactive) | 16.9 µM (inactive) | 20.3 µM (inactive) | 23 µM (inactive) | 18.1 µM (inactive) | 21.1 µM (inactive) | 30.4 µM (inactive) |  |  |
| CCCCCCN1CCc2c(C)c(C#N)c3nc4ccccc4n3c21 | 22.5 µM (inactive) | 22.2 µM (inactive) | 29.2 µM (inactive) | 33.7 µM (inactive) | > 100 µM (inactive) | 65.3 µM (inactive) | 29.9 µM (inactive) | 20.7 µM (inactive) | 16.5 µM (inactive) | 22.2 µM (inactive) | > 100 µM (inactive) |  | > 100 µM (inactive) | > 100 µM (inactive) | 92.9 µM (inactive) | 45 µM (inactive) | 7.82 µM (inactive) | > 100 µM (inactive) | 32.4 µM (inactive) | > 100 µM (inactive) |
| COc1ccccc1C(=O)c1c(NCc2ccccc2)c(=O)c1=O | > 100 µM (inactive) | 29.9 µM (inactive) | > 100 µM (inactive) | 18.1 µM (inactive) | > 100 µM (inactive) | 66.8 µM (inactive) | 28.3 µM (inactive) | 0.0708 µM (active) | > 100 µM (inactive) | > 100 µM (inactive) | > 100 µM (inactive) | 26.1 µM (inactive) | 9.55 µM (inactive) | > 100 µM (inactive) | > 100 µM (inactive) | > 100 µM (inactive) | > 100 µM (inactive) | 27.5 µM (inactive) | > 100 µM (inactive) |  |
| COc1cccc(/C=C/C2=NN(c3cccc(S(=O)(=O)O)c3)C3(C2)SCC(=O)N3c2nc3ccccc3s2)c1 (stereo not drawn) | 94.6 µM (inactive) | 21.1 µM (inactive) | 40.7 µM (inactive) | > 100 µM (inactive) | > 100 µM (inactive) | 53 µM (inactive) | > 100 µM (inactive) | 54.8 µM (inactive) | 62.7 µM (inactive) | 44.8 µM (inactive) | 53.3 µM (inactive) | 30.8 µM (inactive) | 36.7 µM (inactive) | 51.8 µM (inactive) |  | 86.1 µM (inactive) | 37.9 µM (inactive) | 34.3 µM (inactive) | 74.6 µM (inactive) | 23.9 µM (inactive) |
| CN(c1ccccc1Cl)S(=O)(=O)c1ccccc1 |  | > 100 µM (inactive) | > 100 µM (inactive) | > 100 µM (inactive) | > 100 µM (inactive) | 56.2 µM (inactive) | > 100 µM (inactive) |  | 82.4 µM (inactive) | > 100 µM (inactive) | > 100 µM (inactive) | > 100 µM (inactive) | > 100 µM (inactive) | > 100 µM (inactive) | > 100 µM (inactive) | 54.5 µM (inactive) | 44.3 µM (inactive) | 51.8 µM (inactive) | > 100 µM (inactive) | 55.8 µM (inactive) |
| CC(=O)Nc1ccc2c(C(=O)O)c(C)c(O)nc2n1 | 5.27 µM (inactive) |  | 83.4 µM (inactive) |  | > 100 µM (inactive) | > 100 µM (inactive) | > 100 µM (inactive) | > 100 µM (inactive) | 71.3 µM (inactive) | > 100 µM (inactive) | > 100 µM (inactive) | > 10 µM (inactive) | > 100 µM (inactive) | > 100 µM (inactive) |  | > 100 µM (inactive) | > 100 µM (inactive) | 59.8 µM (inactive) |  | > 10 µM (inactive) |
| COc1cc(/C=C2\N=C(c3ccccc3)N(C3Nc4cc5c(cc4S3)NC(N3C(=O)/C(=C/c4cc(OC)c(OC)c(OC)c4)N=C3c3ccccc3)S5)C2=O)cc(OC)c1OC (stereo not drawn) | > 100 µM (inactive) | 74.1 µM (inactive) | 83.9 µM (inactive) | > 100 µM (inactive) | > 100 µM (inactive) | 97.1 µM (inactive) |  | > 100 µM (inactive) | 77.6 µM (inactive) | > 100 µM (inactive) | 38.5 µM (inactive) |  | > 100 µM (inactive) | > 100 µM (inactive) | > 100 µM (inactive) | 94.6 µM (inactive) | 82.6 µM (inactive) | 71.9 µM (inactive) | > 100 µM (inactive) | 20.5 µM (inactive) |
| NC(=O)CC1OC(=O)Cc2cc3c(c(O)c21)C(=O)c1c(O)cccc1C3=O (stereo not drawn) | > 100 µM (inactive) | > 100 µM (inactive) | > 100 µM (inactive) | > 100 µM (inactive) | > 100 µM (inactive) | > 100 µM (inactive) | 61.2 µM (inactive) |  | > 100 µM (inactive) | > 100 µM (inactive) | > 100 µM (inactive) | 59.8 µM (inactive) | 69.3 µM (inactive) | 41.5 µM (inactive) |  | > 100 µM (inactive) | > 100 µM (inactive) | 39.5 µM (inactive) |  | 43.7 µM (inactive) |
| Nc1ncnc2c1ccn2C/C=C/CO | > 100 µM (inactive) | > 100 µM (inactive) | > 100 µM (inactive) | > 100 µM (inactive) | > 100 µM (inactive) | > 100 µM (inactive) | > 100 µM (inactive) | > 100 µM (inactive) | > 100 µM (inactive) | > 100 µM (inactive) | > 100 µM (inactive) | > 100 µM (inactive) | > 100 µM (inactive) | > 100 µM (inactive) | > 100 µM (inactive) | > 100 µM (inactive) | > 100 µM (inactive) | > 100 µM (inactive) | > 100 µM (inactive) |  |
| CC(=N\N=C\c1ccccn1)/C(C)=N/N=C/c1ccccn1 | > 100 µM (inactive) | > 100 µM (inactive) | > 100 µM (inactive) | > 100 µM (inactive) | > 100 µM (inactive) | > 100 µM (inactive) | > 100 µM (inactive) | > 100 µM (inactive) | > 100 µM (inactive) | > 100 µM (inactive) | > 100 µM (inactive) | > 100 µM (inactive) | > 100 µM (inactive) | > 100 µM (inactive) | > 100 µM (inactive) | > 100 µM (inactive) | > 100 µM (inactive) |  | > 100 µM (inactive) | 88.5 µM (inactive) |
| CN(C(=O)Cc1cc(Cl)c(Cl)cc1NC(=O)CN)[C@H]1CCCC[C@@H]1N1CCCC1 | > 100 µM (inactive) | 18.3 µM (inactive) | 88.3 µM (inactive) |  | > 100 µM (inactive) | 35.1 µM (inactive) |  | 68.7 µM (inactive) | 30 µM (inactive) | 18.8 µM (inactive) | > 100 µM (inactive) | 27.5 µM (inactive) | > 100 µM (inactive) | 79.8 µM (inactive) | > 100 µM (inactive) | > 100 µM (inactive) | 37.1 µM (inactive) | 24.7 µM (inactive) | 20.7 µM (inactive) | 29 µM (inactive) |
| CC(NC(=O)C1(N)CCCC1)C(=O)O (stereo not drawn) |  | > 100 µM (inactive) | > 100 µM (inactive) | > 100 µM (inactive) | > 100 µM (inactive) | > 100 µM (inactive) | > 100 µM (inactive) | > 100 µM (inactive) | > 100 µM (inactive) | > 100 µM (inactive) | > 100 µM (inactive) | > 100 µM (inactive) | > 100 µM (inactive) | > 100 µM (inactive) | > 100 µM (inactive) | > 100 µM (inactive) | > 100 µM (inactive) | > 100 µM (inactive) | > 100 µM (inactive) | > 100 µM (inactive) |
| Cc1cccc(/C=N/NC(=S)N2CCCCCC2)n1 | 0.519 µM (active) | 0.0989 µM (active) | 0.0142 µM (active) | 0.608 µM (active) |  | 0.512 µM (active) | < 0.0269 µM (active) | 0.515 µM (active) | < 0.01 µM (active) | 0.546 µM (active) | < 0.01 µM (active) | < 0.01 µM (active) | < 0.0399 µM (active) | 0.142 µM (active) | 0.219 µM (active) | 0.299 µM (active) | < 0.0166 µM (active) | < 0.01 µM (active) | 0.135 µM (active) |  |
| N=C(N)N/N=C/c1c(-c2cc([N+](=O)[O-])c(Cl)cc2Cl)nc2n1CCS2 | 20.7 µM (inactive) | 6.35 µM (inactive) | 26.5 µM (inactive) | 5.16 µM (inactive) | 79.3 µM (inactive) | 3.18 µM (inactive) | 2.66 µM (inactive) | 41.5 µM (inactive) | 5.01 µM (inactive) | 3.13 µM (inactive) | > 100 µM (inactive) | 2.84 µM (inactive) | 16.4 µM (inactive) | 22.4 µM (inactive) | 42.4 µM (inactive) | 5.33 µM (inactive) | 13.2 µM (inactive) | 2.88 µM (inactive) |  | 0.951 µM (active) |
| CN1C/C(=C\c2cccs2)C2=NN(c3ccccc3)C(c3cccs3)C2C1 (stereo not drawn) |  | 5.08 µM (inactive) | 10.5 µM (inactive) | > 100 µM (inactive) | > 100 µM (inactive) | 17.9 µM (inactive) | 5.16 µM (inactive) |  | 2.7 µM (inactive) | 25.5 µM (inactive) | 3.77 µM (inactive) | 2 µM (inactive) | 4.06 µM (inactive) | > 34 µM (inactive) | 11.1 µM (inactive) | > 100 µM (inactive) | 10.7 µM (inactive) | 3.96 µM (inactive) |  | 1.71 µM (inactive) |

Reference: ChEMBL document CHEMBL1201862, “PubChem BioAssay data set” (2004)
